Reference: US11505797B2, “Gene knockout of variant NRF2 for treatment of cancer” (Christiana Care Health Services, Inc., priority 2019, dated 2022)
Entries after “also recorded” stand apart in the source; their conditions may differ.

What was measured:
[1] = test system: NRF2 locus (exon 4) in A549 cells; assay: TIDE indel analysis of bulk sorted eGFP+ A549 cells transfected with pX458 gRNA1 or gRNA2; type: cell-based, human; conditions: bulk sorted eGFP+ A549 population, pX458 plasmid
Description: A549 cells were transfected at a concentration of 5×10^5 cells/100 μl in 4 mm gap cuvette (BioExpress, Kaysville, Utah, USA). NRF2 targeting pX458 constructs were separately electroporated (250 V, LV, 13 ms pulse length, 2 pulses, 1 s interval) into A549 cells using a Bio-Rad Gene Pulser XCell Electroporation System (Bio-Rad Laboratories, Hercules, Calif., USA). Cells were then recovered in 6-well plates with complete growth media at 37° C. for 72 hours prior to sorting. […] Clones were expanded and transferred to larger plates as the individual clones reached confluence, with DNA isolation occurring when cells reached confluence in a six-well plate (1×10^6 cells/mL). […]
FIG. 1B illustrates the functional domains of the NRF2 protein including the KEAP1 Binding Domain, Transactivation Domain, Repressor Binding Domain, β-TrCP Binding Domain, DNA Binding Domain and the Transcriptional Activation Domain. […] To evaluate the efficiency of CRISPR-directed NRF2 knockout in the total targeted population, eGFP+ cells were isolated as a population, and the degree of genetic disruption at the NRF2 locus in cells, transfected with either gRNA1 or gRNA2 pX458, was determined. The sorted populations were Sanger-sequenced and the resulting trace files were analyzed for the presence of indels, a marker for gene disruption. […]

[2] = test system: NRF2 knockout A549 cells (2-11); assay: MTS cell proliferation assay, NRF2 knockout A549 cells (2-11); type: cell-based, human; conditions: 2-11 knockout A549, increasing dosages, 72 hours; listed as Carboplatin
Description: Cell viability was evaluated using the CellTiter 96 Aqueous Non-Radioactive Cell Proliferation Assay (Promega, Madison, Wis.). A549 cell lines were plated at 2×10^3 cells per well and allowed to culture for 24 hours. The cell media was then aspirated, the cells washed with PBS, then exposed to the MTS reagent for 3 hours. After 3 hours of MTS bio-reduction by proliferating cells, the formazan product's absorbance was measured using a 450 nm filter on an Infinite 2000 PRO microplate reader (Tecan, Mannadorf, Switzerland). Cell viability after drug exposure was evaluated using the CellTiter 96 Aqueous Non-Radioactive Cell Proliferation Assay. A549 cell lines were plated at 2×10^3 cells per well and allowed to culture for 24 hours. The cells were then treated with cisplatin, carboplatin, or a combination of cisplatin and vinorelbine for three days. The cell media was then aspirated, the cells washed with PBS, then exposed to the MTS reagent for 3 hours. After 3 hours of MTS bio-reduction by proliferating cells, the formazan product's absorbance was measured using a 450 nm filter on an Infinite 2000 PRO microplate reader.

[3] = test system: NRF2 knockout A549 (2-11) tumors; assay: Xenograft mouse model, NRF2 knockout A549 (2-11) tumors; type: in vivo, athymic nude mice; conditions: tail vein day 0, 3, 6, 9; cisplatin 2 mg/kg; cisplatin 5 mg/kg + vinorelbine 5 mg/kg; carboplatin 25 mg/kg
Description: The human xenograft model was established using methodology reported previously. Kellar et al., Biomed Res. Int. […] Female athymic nude mice (Envigo, 5-6 weeks old) were used in this study. Approximately 5×10^6 cells (wild type A549 or homozygous knockout (clonal expansion 2-11)) suspended in PBS with 20% Matrigel were injected subcutaneously into right flank of each mouse. Tumor volume was measured three times a week with a digital caliper once palpable, and calculated using the formula, tumor size=ab^2/2, where ‘a’ is the larger and ‘b’ is the smaller of the two dimensions. When tumors grew up to a mean volume of around 100 mm^3, A549 tumor bearing mice or A549-2-11 tumor bearing mice were randomly divided into 7 groups (N=5 for each group) respectively and subject to dose/regimen-finding study. […] Tumor volume and body weight was closely monitored over time. After 16 days, the animals were sacrificed, with tumor removed, weighed and processed for molecular analysis. Mice were euthanized. The data were expressed as mean±SD. Student's t-test and one-way or two-way ANOVA was used to assess the significance of difference. A P value<0.05 was considered significant.
A549 xenografts were resected on day 16, snap frozen in liquid nitrogen and stored in −80° C. until usage. All immunofluorescence staining was performed as previously described. Wang et al., Investig. Opthalmology Vis. […] Briefly, tumors were embedded in Optimum Cutting Temperature (Tissue Tek, Torrance, Calif., USA) and 16-μm-thick sections were obtained with a Leica CM3050 cryostat (Leica Microsystems, Buffalo Grove, Ill., USA), and mounted on slides. Slides were fixed and incubated with blocking buffer for 1 hour at room temperature. […] Sections were washed in PBS, then mounted with SlowFade Gold antifade mountant with DAPI (Invitrogen, Carlsbad, Calif., USA). Images were obtained with a Zeiss Observer.Z1 microscope (Carl Zeiss, Inc., Gottingen, Germany). The TUNEL assay was conducted with In Situ Cell Death Detection Kit, Fluorescein (Roche, Base, Switzerland), following the manufacturer's instructions. […]

[4] = test system: wildtype NRF2 gene in the H1703 cell line; assay: TIDE indel efficiency of R34G sgRNA at various lengths in H1703 parental cells; type: cell-based, human; conditions: for total indel efficiency: 250 pmol sgRNA to 50 pmol Cas9, 72 hours
Description: H1703 parental cells were cultured 48 hours prior to transfections and about 60-80% confluent on the day of transfection. 10^6 cells per 100 ul was used per transfection and each condition was run in duplicate.
Each CRISPR/Cas9 RNP was complexed at a 5:1 ratio of sgRNA to Cas9. 250 pmol of sgRNA was complexed at room temperature with 50 pmol of Cas9, in duplicate. The RNP complex was then transfected into H1703 parental cells using nucleofection (Lonza) with the SF Nucleofection Kit. Transfected cells were plated and allowed to recover for 72 hours. After the 72 hours, each sample of cells was collected by trypsinization and pelleted for further analysis. Cell pellets were used for genomic DNA isolation, PCR and Sanger sequencing.
It has been reported that gRNA length can affect target specificity (Fu et al., Nat. Biotechnol. 32:279-84 (2014)). The efficiency of indel formation of the various length R34G sgRNAs to the wildtype “on-target” site was evaluated. sgRNAs for each length were synthetized and complexed with purified Cas9. Replicate experiments were carried out with H1703 lung squamous cells that were transfected with each RNP, recovered for 72 hours, then analyzed for indel formation. No R34G site is present in the wildtype NRF2 gene in the H1703 cell line, therefore only minimal or background gene editing activity is expected.

| Compound | indels by TIDE (NRF2 disruption) [1] | chemosensitivity (MTS cell proliferation) [2] | tumor growth over 16 days [3] | sequence remaining wildtype ([4]; first value (replicate 1)) [%] | total indel efficiency ([4]; first value (replicate 1)) [%] | sequence remaining wildtype ([4]; replicate 2) [%] | total indel efficiency ([4]; replicate 2) [%] |
| --- | --- | --- | --- | --- | --- | --- | --- |
| 5′-UCGAUGUGACCGGGAAUAUCAGG-3′ (expressed or natural sequence) [gRNA1] | significant amount of indels | – | – | – | – | – | – |
| N.N.O=C([O-])C1(C(=O)[O-])CCC1.[Pt+2] [carboplatin] | – | the cell killing response reflected what was observed in the experiments using cisplatin | the same reduced proliferation and growth trend described above is reproduced; also recorded: significant reduction in tumor cell proliferation | – | – | – | – |
| AAGATATAGATCTTGGAGTAAG (listed as DNA, chemistry not given here) [22 nucleotide length sgRNA] | – | – | – | 98.2 | 1.2 | 96.5 | 2.3 |
| ATAGATCTTGGAGTAAG (listed as DNA, chemistry not given here) [17 nucleotide length sgRNA] | – | – | – | 98.0 | 1.5 | 97.7 | 1.6 |
| TATAGATCTTGGAGTAAG (listed as DNA, chemistry not given here) [18 nucleotide length sgRNA] | – | – | – | 97.4 | 1.9 | 96.6 | 2.6 |
| GATATAGATCTTGGAGTAAG (listed as DNA, chemistry not given here) [20 nucleotide length sgRNA] | – | – | – | 98.4 | 0.8 | 96.2 | 2.9 |
| CAAGATATAGATCTTGGAGTAAG (listed as DNA, chemistry not given here) [23 nucleotide length sgRNA] | – | – | – | 95.8 | 3.4 | 95.2 | 3.8 |
| 5′-UGAUUUAGACGGUAUGCAACAGG-3′ (expressed or natural sequence) [gRNA2] | significant amount of indels | – | – | – | – | – | – |
